Data as given in US20120244196A1, “PHARMACEUTICAL COMPOSITION CONTAINING MEDICAMENT-CONTAINING FINE PARTICLES AND METHOD FOR PRODUCING SAME” (NITTO DENKO CORPORATION, priority 2009, published 2012).
Several values for one entry are separate records, joined by “and”; a condition that tells them apart may be missing. Equal entries are not always repeated.

How the values were obtained:
[1] = tested on: antibody against OVA in the serum; assay: mouse immunity experiment, humoral immunity level (ELISA); format: in vivo, mouse (C57BL/6 lineage); details: 200 μL intradermal, 62.5 μg/ml egg albumin, 3 injections at one week interval, one week after final injection, N = 2
Procedure: (§1) 200 μL of small particles of Example 10 (egg albumin concentration 62.5 μg/ml, pH 6.5) or egg albumin solution (egg albumin concentration 62.5 μg/ml, pH 6.5) was intradermally injected to the back of mouse (C57BL/6 lineage). Injection at one week interval was repeated twice, totaling 3 injections. One week after final injection, the humoral immunity level and cellular immunity level of the mouse were evaluated. The humoral immunity level was evaluated by measuring the amount of antibody against OVA in the serum based on the absorbance by ELISA method. The cellular immunity level was evaluated by stimulating the isolated spleen cells with OVA peptide, counting the spot number of the ELISPOT method, and measuring the secreted amount of IFN-y.

[2] = tested on: isolated spleen cells stimulated with OVA peptide; assay: mouse immunity experiment, cellular immunity level (ELISPOT); format: in vivo, mouse (C57BL/6 lineage); details: 200 μL intradermal, 62.5 μg/ml egg albumin, 3 injections at one week interval, one week after final injection, N = 2
Procedure: as §1

OVA solution: egg albumin solution (egg albumin concentration 62.5 μg/ml, pH 6.5), control in mouse immunity experiment
humoral immunity level of serum (absorbance at 450 nm by ELISA analysis), average [1]: 0.32 | humoral immunity level of serum (absorbance at 450 nm by ELISA analysis), individual mice [1]: 0.23 and 0.40 | cellular immunity level of spleen cell (SPOT number of ELISPOT analysis), average [2]: 62 | cellular immunity level of spleen cell (SPOT number of ELISPOT analysis), individual mice [2]: 77 and 46
